Source: ChEMBL document CHEMBL1649170, “Functional characterization of the sigmaB-dependent yabJ-spoVG operon in Staphylococcus aureus: role in methicillin and glycopeptide resistance” (2009)
Values after ≈ are worked out from the molar mass of the structure shown.

Tests used:
Type in all cases: functional
Staphylococcus aureus [1] = assay: Antimicrobial activity against methicillin-resistant and tetracycline-sensitive Staphylococcus aureus COL mutant by broth microdilution method
Staphylococcus aureus [2] = assay: Antimicrobial activity against methicillin- and tetracycline resistant Staphylococcus aureus COL by broth microdilution method
Staphylococcus aureus [3] = assay: Antimicrobial activity against erythromycin-resistant, tetracycline-sensitive and rsbUVW-sigB operon deficient Staphylococcus aureus COL mutant by broth microdilution method
Staphylococcus aureus [4] = assay: Antimicrobial activity against erythromycin-resistant and rsbUVW-sigB operon deficient Staphylococcus aureus COL by broth microdilution method
Staphylococcus aureus [5] = assay: Antimicrobial activity against erythromycin-resistant, tetracycline-sensitive and yabJ-spoVG operon deficient Staphylococcus aureus COL mutant by broth microdilution method
Staphylococcus aureus [6] = assay: Antimicrobial activity against erythromycin-, tetracycline resistant and yabJ-spoVG operon deficient Staphylococcus aureus COL by broth microdilution method

## Cc1onc(-c2ccccc2)c1C(=O)N[C@@H]1C(=O)N2[C@@H]1SC(C)(C)[C@@H]2C(=O)O [OXACILLIN]
Staphylococcus aureus [1]
  MIC: > 256 µg/mL
Staphylococcus aureus [2]
  MIC: > 256 µg/mL
Staphylococcus aureus [3]
  MIC: > 256 µg/mL
Staphylococcus aureus [4]
  MIC: 256 µg/mL (≈ 638 µM)
Staphylococcus aureus [5]
  MIC: > 256 µg/mL
Staphylococcus aureus [6]
  MIC: 128 µg/mL (≈ 319 µM)
